In US10392404B2, “Compounds and compositions as kinase inhibitors” (NOVARTIS AG, priority 2014, dated 2019) one finds IC50 data, which are given here for 21 compounds.

One test concerns the target T1, C-RAF (Homo sapiens, UniProt P04049, Y340E/Y341E).
T1 construct: His tag (implied by nickel chromatography) (cleaved yes); StrepII tag (cleaved yes); made in house; host or cells: Sf9 insect cells (baculovirus), CRAF and h14-3-3 zeta co-expressed; MEK1 substrate from E. coli
Briefly: In vitro Raf activity determination (Alpha Screen, biotinylated kinase-dead MEK1 substrate), C-Raf. Type of test: biochemical. To be noted: c-Raf approximately 4 nM; ATP 1 μM; pre-incubation 60 minutes; reaction 1 hour at room temperature. The source says:
CRAF cDNA was subcloned as full length protein, with Y340E and Y341E activating mutations, into a baculovirus expression vector for Sf9 insect cell expression. h14-3-3 zeta cDNA was subcloned into a baculovirus expression vector for SF9 insect cell expression. Sf9 cells co-expressing both proteins were lysed and subjected to immobilized nickel chromatography and eluted with Imidazole. A second column (StrepII binding column) was used and eluted with desthiobiotin. Protein Tags were removed using Prescission enzyme and the protein was further purified using a flowthrough step to remove tags.
C-Raf TR refers to a truncated C-Raf protein, a Δ1-324 deletion mutant. C-Raf FL refers to the full-length C-Raf protein.
(§1) Full length MEK1 with an inactivating K97R ATP binding site mutation is utilized as a RAF substrate. The MEK1 cDNA was subcloned with an N-terminal (his)6 tag into a vector for E. Coli expression. The MEK1 substrate was purified from E. Coli lysate by nickel affinity chromatography followed by anion exchange. The final MEK1 preparation was biotinylated (Pierce EZ-Link Sulfo-NHS-LC-Biotin) and concentrated.
(§2) Assay Materials: Assay buffer is 50 mM Tris, pH 7.5, 15 mM MgCl2, 0.01% Bovine Serum Albumin (BSA) and 1 mM dithiothreitol (DTT); Stop buffer is 60 mM ethylenediaminetetraacetic acid (EDTA) and 0.01% Tween® 20; b-Raf (V600E), active; biotinylated Mek, kinase dead; Alpha Screen detection kit (available from PerkinElmer™, #6760617R); Anti phospho-MEK1/2 (available from Cell Signaling Technology, Inc. #9121); 384 well low volume assay plates (White Greiner® plates).
(§3) Assay conditions: b-Raf (V600E) approximately 4 pM; c-Raf approximately 4 nM; biotinylated Mek, kinase dead approximately 10 nM; ATP 10 μM for BRAF (V600E) and 1 μM for CRAF; Pre-incubation time with compounds 60 minutes at room temperature; Reaction time 1 or 3 hours at room temperature.
(§4) Assay protocol: Raf and biotinylated Mek (kinase dead) were combined at 2× final concentrations in assay buffer (50 mM Tris, pH 7.5, 15 mM MgCl2, 0.01% BSA and 1 mM DTT) and dispensed […] per well in assay plates (Greiner white 384 well assay plates #781207) containing […] of 40× of a Raf kinase inhibitor test compound diluted in 100% DMSO. The plate was incubated for 60 minutes at room temperature. The Raf kinase activity reaction was started by the addition of […] per well of 2×ATP diluted in assay buffer. After 3 hours (b-Raf(V600E)) or 1 hour (c-Raf). The reactions were stopped and the phosphorylated product was measured using a rabbit anti-p-MEK (Cell Signaling, #9121) antibody and the Alpha Screen IgG (ProteinA) detection Kit (PerkinElmer #6760617R), by the addition of […] to the well of a mixture of the antibody (1:2000 dilution) and detection beads (1:2000 dilution of both beads) in Stop/bead buffer (25 mM EDTA, 50 mM Tris, pH 7.5, 0.01% Tween20). The additions were carried out under dark conditions to protect the detection beads from light. A lid was placed on top of the plate and incubated for 1 hour at room temperature, after which the luminescence was read on a PerkinElmer Envision instrument. The concentration of each compound for 50% inhibition (IC50) was calculated by non-linear regression using XL Fit data analysis software.

The target in the next test is T2, b-Raf (V600E) (Homo sapiens, UniProt P15056, V600E).
T2 construct: made in house
T2 sequence (P15056 whole entry V600E): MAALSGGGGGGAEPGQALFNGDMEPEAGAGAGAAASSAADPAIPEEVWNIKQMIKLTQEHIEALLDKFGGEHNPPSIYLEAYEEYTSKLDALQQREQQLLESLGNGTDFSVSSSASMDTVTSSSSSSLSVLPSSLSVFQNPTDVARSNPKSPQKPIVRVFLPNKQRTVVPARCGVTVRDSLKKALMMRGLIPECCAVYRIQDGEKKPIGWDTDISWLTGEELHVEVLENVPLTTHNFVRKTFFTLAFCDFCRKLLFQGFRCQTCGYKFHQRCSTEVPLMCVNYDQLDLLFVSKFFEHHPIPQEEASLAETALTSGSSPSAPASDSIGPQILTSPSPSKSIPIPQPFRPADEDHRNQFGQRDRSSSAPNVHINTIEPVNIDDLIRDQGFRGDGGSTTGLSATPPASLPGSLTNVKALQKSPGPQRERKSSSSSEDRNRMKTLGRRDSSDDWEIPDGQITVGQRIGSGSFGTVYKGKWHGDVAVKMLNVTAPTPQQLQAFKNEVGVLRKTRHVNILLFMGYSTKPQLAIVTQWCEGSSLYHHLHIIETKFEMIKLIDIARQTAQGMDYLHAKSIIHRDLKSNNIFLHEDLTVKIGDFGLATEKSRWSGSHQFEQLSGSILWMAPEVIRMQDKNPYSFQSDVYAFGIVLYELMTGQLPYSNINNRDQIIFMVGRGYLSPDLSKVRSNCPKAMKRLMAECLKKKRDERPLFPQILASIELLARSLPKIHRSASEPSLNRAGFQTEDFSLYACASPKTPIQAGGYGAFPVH
Briefly: In vitro Raf activity determination (Alpha Screen, biotinylated kinase-dead MEK1 substrate), B-Raf. To be noted: b-Raf (V600E) approximately 4 pM; ATP 10 μM; pre-incubation 60 minutes; reaction 3 hours at room temperature. Type of test: biochemical. As to the method:
as §1, §2, §3, §4

T1 sequence (P04049 whole entry Y340E/Y341E): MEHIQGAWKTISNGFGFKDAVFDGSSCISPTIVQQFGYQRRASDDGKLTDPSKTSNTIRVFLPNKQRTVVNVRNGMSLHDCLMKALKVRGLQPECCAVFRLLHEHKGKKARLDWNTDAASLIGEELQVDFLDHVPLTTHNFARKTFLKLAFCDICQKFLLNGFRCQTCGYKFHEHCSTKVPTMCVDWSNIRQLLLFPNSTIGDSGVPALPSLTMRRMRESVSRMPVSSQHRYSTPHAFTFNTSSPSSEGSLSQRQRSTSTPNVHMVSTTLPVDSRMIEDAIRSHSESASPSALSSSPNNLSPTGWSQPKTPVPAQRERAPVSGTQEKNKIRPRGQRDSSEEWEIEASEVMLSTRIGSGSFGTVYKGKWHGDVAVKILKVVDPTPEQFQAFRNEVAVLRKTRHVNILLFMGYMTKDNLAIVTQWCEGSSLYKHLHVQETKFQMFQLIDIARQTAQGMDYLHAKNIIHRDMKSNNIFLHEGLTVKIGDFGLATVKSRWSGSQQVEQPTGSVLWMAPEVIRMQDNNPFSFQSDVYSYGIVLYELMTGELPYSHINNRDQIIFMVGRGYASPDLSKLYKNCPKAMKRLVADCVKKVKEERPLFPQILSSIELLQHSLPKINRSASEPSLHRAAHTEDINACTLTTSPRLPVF
T1 sequence (P63104 whole entry partner): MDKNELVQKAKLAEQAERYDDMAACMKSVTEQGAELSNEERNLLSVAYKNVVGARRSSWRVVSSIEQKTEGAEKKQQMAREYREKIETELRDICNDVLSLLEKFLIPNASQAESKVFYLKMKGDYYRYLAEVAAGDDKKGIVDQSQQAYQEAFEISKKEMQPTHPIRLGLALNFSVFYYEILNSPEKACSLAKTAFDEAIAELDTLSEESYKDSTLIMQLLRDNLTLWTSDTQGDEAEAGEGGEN

On to `CCNc1ncc(-c2cc(NC(=O)c3ccnc(C(F)(F)F)c3)ccc2C)cc1C#N` [Example 24, N-(3-(5-cyano-6-(ethylamino)pyridin-3-yl)-4-methylphenyl)-2-(trifluoromethyl) isonicotinamide], for which the results for the IC50 against C-RAF and against b-Raf (V600E) were 0.123 nM and 0.805 nM, respectively.

For `Cc1ncc(NC(=O)c2ccnc(C(C)(C)C#N)c2)cc1-c1cnc(N2CCCC2)c(C#N)c1` [Example 73, N-(5′-cyano-2-methyl-6′-(pyrrolidin-1-yl)-[3,3′-bipyridin]-5-yl)-2-(2-cyanopropan-2-yl)isonicotinamide], the IC50 (commonly the point on the concentration scale where inhibition reaches its midpoint) on C-RAF came out at 2.09 nM; against b-Raf (V600E), 8.66 nM.

As to `COCCNc1ncc(-c2cc(NC(=O)c3ccnc(C(F)F)c3)ccc2C)cc1C#N` [Example 178, N-(3-(5-cyano-6-((2-methoxyethyl)amino)pyridin-3-yl)-4-methylphenyl)-2-(difluoromethyl) isonicotinamide], the results for the IC50 on C-RAF and at b-Raf (V600E) were 0.192 nM and 1.51 nM, respectively.

Consider `Cc1ncc(NC(=O)c2ccnc(C(C)(C)C#N)c2)cc1-c1cnc(OC(C)C)c(C#N)c1` [Example 96, N-(5′-cyano-6′-isopropoxy-2-methyl-[3,3′-bipyridin]-5-yl)-2-(2-cyanopropan-2-yl)isonicotinamide], for which the IC50 on C-RAF came to 3.53 nM; at b-Raf (V600E), 11.9 nM.

As for `Cc1ccc(NC(=O)c2cc(C(C)(C)N)cc(C(F)(F)F)c2)cc1-c1cnc(N2CCOCC2)c(C#N)c1` [Example 249, 3-(2-aminopropan-2-yl)-N-(3-(5-cyano-6-morpholinopyridin-3-yl)-4-methylphenyl)-5-(trifluoromethyl) benzamide], the IC50 against C-RAF is 0.653 nM; at b-Raf (V600E), 2.54 nM.

For `Cc1ncc(NC(=O)c2ccnc(C(C)(C)C#N)c2)cc1-c1cnc(-c2ccn(C)c(=O)c2)c(C#N)c1` [Example 103, N-(5′-cyano-1″,2-dimethyl-2″-oxo-1″,2″-dihydro-[3,3′:6′,4″- terpyridin]-5-yl)-2-(2-cyanopropan-2-yl)isonicotinamide], the IC50 against C-RAF was 4.21 nM; against b-Raf (V600E), 22.5 nM.

As to `Cc1ccc(NC(=O)c2ccnc(C(F)(F)F)c2)cc1-c1cnc(NC2CC2)c(C#N)c1` [Example 21, N-(3-(5-cyano-6-(cyclopropylamino)pyridin-3-yl)-4-methylphenyl)-2-(trifluoromethyl) isonicotinamide], the IC50 on C-RAF amounted to 0.103 nM; against b-Raf (V600E) it was 0.575 nM.

Turning to `Cc1ncc(NC(=O)c2cc(C(C)(C)N)cc(C(F)(F)F)c2)cc1-c1cnc(N2CCOCC2)c(C#N)c1` [Example 246, 3-(2-aminopropan-2-yl)-N-(5′-cyano-2-methyl-6′-morpholino-[3,3′-bipyridin]-5-yl)-5-(trifluoromethyl) benzamide], the IC50 against C-RAF came out at 1.85 nM; against b-Raf (V600E), 7.67 nM.

As for `Cc1ncc(NC(=O)c2ccnc(C(F)F)c2)cc1-c1cnc(NC2CCOCC2)c(C#N)c1` [Example 171, N-(5′-cyano-2-methyl-6′-((tetrahydro-2H-pyran-4-yl)amino)-[3,3′-bipyridin]-5-yl)-2-(difluoromethyl) isonicotinamide], the results for the IC50 at C-RAF and against b-Raf (V600E) were 0.925 nM and 4.18 nM, respectively.

Consider `Cc1ccc(NC(=O)c2ccnc(C(F)(F)F)c2)cc1-c1cnc(-c2cnn(C)c2)c(C#N)c1` [Example 124, N-(3-(5-cyano-6-(1-methyl-1H-pyrazol-4-yl)pyridin-3-yl)-4-methylphenyl)-2-(trifluoromethyl) isonicotinamide], for which the IC50 at C-RAF was found to be 0.0746 nM; against b-Raf (V600E) it was 0.427 nM.

Turning to `Cc1ccc(NC(=O)c2cccc(C(F)(F)F)c2)cc1-c1cnc(NC(C)C)c(C#N)c1` [Example 18, N-(3-(5-cyano-6-(isopropylamino)pyridin-3-yl)-4-methylphenyl)-3-(trifluoromethyl) benzamide], the IC50 against C-RAF came out at 0.386 nM; against b-Raf (V600E), 3.44 nM.

On to `Cc1ncc(NC(=O)c2ccnc(C(C)(C)O)c2)cc1-c1cnc(N(C)C)c(C#N)c1` [Example 272, N-(5′-cyano-6′-(dimethylamino)-2-methyl-[3,3′-bipyridin]-5-yl)-2-(2-hydroxypropan-2-yl)isonicotinamide], for which the 50% inhibitory concentration (IC50) against C-RAF is 2.16 nM; at b-Raf (V600E) it was 18.4 nM.

Take `Cc1ccc(NC(=O)c2cccc(C(F)(F)F)c2)cc1-c1cnc(-n2ccc(=O)cc2)c(C#N)c1` [Example 118, N-(3-(3′-cyano-4-oxo-4H-[1,2′-bipyridin]-5′-yl)-4-methylphenyl)-3-(trifluoromethyl) benzamide]: the IC50 was 0.768 nM at C-RAF and 5.57 nM on b-Raf (V600E).

On to `Cc1ncc(NC(=O)c2ccnc(C(C)(C)C#N)c2)cc1-c1cnc(N2CC(O)C2)c(C#N)c1` [Example 65, N-(5′-cyano-6′-(3-hydroxyazetidin-1-yl)-2-methyl-[3,3′-bipyridin]-5-yl)-2-(2-cyanopropan-2-yl)isonicotinamide], for which the IC50 was determined as 2.7 nM against C-RAF and 14.5 nM at b-Raf (V600E).

`Cc1ncc(NC(=O)c2cnnc(C(F)(F)F)c2)cc1-c1cnc(NC2CCOCC2)c(C#N)c1` [Example 175, N-(5′-cyano-2-methyl-6′-((tetrahydro-2H-pyran-4-yl)amino)-[3,3′-bipyridin]-5-yl)-6-(trifluoromethyl) pyridazine-4-carboxamide]: the IC50 against C-RAF turned out to be 1.25 nM; against b-Raf (V600E), 4.74 nM.

Turning to `Cc1ccn(-c2ncc(-c3cc(NC(=O)c4ccnc(C(C)(C)C#N)c4)cnc3C)cc2C#N)n1` [Example 83, N-(5′-cyano-2-methyl-6′-(3-methyl-1H-pyrazol-1-yl)-[3,3′-bipyridin]-5-yl)-2-(2-cyanopropan-2-yl)isonicotinamide], the IC50 stood at 4.89 nM against C-RAF and 23.7 nM against b-Raf (V600E).

Take `Cc1ccc(NC(=O)c2ccnc(C(C)(C)C#N)c2)cc1-c1cnc(C2CCOCC2)c(C#N)c1` [Example 137, N-(3-(5-cyano-6-(tetrahydro-2H-pyran-4-yl)pyridin-3-yl)-4-methylphenyl)-2-(2-cyanopropan-2-yl)isonicotinamide]: the IC50 against C-RAF was 0.476 nM; against b-Raf (V600E) it was 1.98 nM.

With `Cc1ncc(NC(=O)c2cc(C(F)(F)F)nn2C)cc1-c1cnc(N(C)C)c(C#N)c1` [Example 267, N-(5′-cyano-6′-(dimethylamino)-2-methyl-[3,3′-bipyridin]-5-yl)-1-methyl-3-(trifluoromethyl)-1H-pyrazole-5-carboxamide], the IC50 on C-RAF worked out at 196 nM; on b-Raf (V600E), 1660 nM.

Regarding `Cc1ccc(NC(=O)c2ccnc(C(F)F)c2)cc1-c1cnc(N2CCNCC2)c(C#N)c1` [Example 160, N-(3-(5-cyano-6-(piperazin-1-yl)pyridin-3-yl)-4-methylphenyl)-2-(difluoromethyl) isonicotinamide], the IC50 was determined as 0.157 nM against C-RAF and 1.59 nM against b-Raf (V600E).

As for `Cc1ccc(NC(=O)c2cccc(S(C)(=O)=O)c2)cc1-c1cnc(N2CC(C)(O)C2)c(C#N)c1` [Example 218, N-(3-(5-cyano-6-(3-hydroxy-3-methylazetidin-1-yl)pyridin-3-yl)-4-methylphenyl)-3-(methylsulfonyl) benzamide], the IC50 on C-RAF amounted to 0.617 nM; at b-Raf (V600E), 3.58 nM.

For `Cc1ncc(NC(=O)c2ccnc(C(C)(C)C#N)c2)cc1-c1cnc(N2CCNCC2)c(C#N)c1` [Example 71, N-(5′-cyano-2-methyl-6′-(piperazin-1-yl)-[3,3′-bipyridin]-5-yl)-2-(2-cyanopropan-2-yl)isonicotinamide], the IC50 against C-RAF was found to be 1.97 nM; against b-Raf (V600E), 4.03 nM.
